Experimental findings from paper PMC7802075 (ACS Infectious Diseases, 2020) are described below.

One assay deals with T1, LmjIPCS (inositol phosphorylceramide synthase from L. major) (Leishmania major, UniProt E9AFX2).
T1 sequence (E9AFX2 1-338): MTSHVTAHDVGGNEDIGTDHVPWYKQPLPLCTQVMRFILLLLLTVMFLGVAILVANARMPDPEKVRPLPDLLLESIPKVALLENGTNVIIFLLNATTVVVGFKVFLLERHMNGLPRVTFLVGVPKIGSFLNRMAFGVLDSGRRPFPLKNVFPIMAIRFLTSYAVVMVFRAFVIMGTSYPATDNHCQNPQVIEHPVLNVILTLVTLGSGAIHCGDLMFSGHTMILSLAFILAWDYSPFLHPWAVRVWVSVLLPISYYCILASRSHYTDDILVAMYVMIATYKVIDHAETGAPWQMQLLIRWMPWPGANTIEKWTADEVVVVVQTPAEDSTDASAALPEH
In words: biochemical. The arrangement: inhibition: dose or concentration left out as unconfirmed.
Details: not given
The assay is classed as biochemical.
`CC(C)(Oc1ccc(Cl)cc1)C(=O)O` [CLOFIBRIC ACID]: the “20mM inhibition LmjIPCS” value turned out to be 56%. Same read-out and setting: for `Clc1cccc(Cl)c1N=C1NCCN1` [CLONIDINE] the value was 43%; for `Cc1onc(-c2ccccc2Cl)c1C(=O)N[C@@H]1C(=O)N2[C@@H]1SC(C)(C)[C@@H]2C(=O)O` [CLOXACILLIN], 45%; for `CC(=O)OCC(=O)[C@@]1(O)CC[C@H]2[C@@H]3CCC4=CC(=O)CC[C@]4(C)[C@H]3C(=O)C[C@@]21C` [CORTISONE ACETATE], 62%. Take `CN1C(=O)CC[C@H]1c1cccnc1` [COTININE]: the “20mM inhibition LmjIPCS” value is recorded as 34%. In the case of `CN1CCN(C(c2ccccc2)c2ccccc2)CC1` [CYCLIZINE], the “20mM inhibition LmjIPCS” value came out at 58%. Same read-out and setting: for `CNCCCN1c2ccccc2CCc2ccccc21` [DESIPRAMINE] the value was 64%. `C[C@@H]1C[C@H]2[C@@H]3CCC4=CC(=O)C=C[C@]4(C)[C@@]3(F)[C@@H](O)C[C@]2(C)[C@@]1(O)C(=O)CO` [DEXAMETHASONE]: the “20mM inhibition LmjIPCS” value was found to be 44%.

Take `COc1ccc2c(c1)[C@]13CCCC[C@@H]1[C@H](C2)N(C)CC3` [DEXTROMETHORPHAN]: the “20mM inhibition LmjIPCS” value stood at 64%.

As for `O=C(CC(=O)c1ccccc1)c1ccccc1` [DIBENZOYLMETHANE], the “20mM inhibition LmjIPCS” value is given as 44%. Regarding `CCCCOc1cc(C(=O)NCCN(CC)CC)c2ccccc2n1` [DIBUCAINE], the “20mM inhibition LmjIPCS” value came out at 63%.

The same assay, now with this note: NINDS set screen, single concentration 20mM as printed.
In the case of `Cc1c(N(C)CS(=O)(=O)[O-])c(=O)n(-c2ccccc2)n1C.[Na+]` [DIPYRONE], the “20mM inhibition LmjIPCS” value is listed as -7.57%.

The same assay, now with this note: NINDS set screen, single concentration printed as 20mM.
For the compound `CC(C)(C)CC(C)(C)c1ccc(O)c(Cc2ccc(Cl)cc2Cl)c1` [CLOFOCTOL], the “20mM inhibition LmjIPCS” value came out at 65%. `Oc1ccc(Cl)c2cccnc12` [CLOXYQUIN]: the “20mM inhibition LmjIPCS” value came out at 59%. Same read-out and setting: the value for `C=C[C@@]1(C)CC(=O)[C@]2(O)[C@@]3(C)[C@@H](O)CCC(C)(C)[C@@H]3[C@H](O)[C@H](OC(C)=O)[C@@]2(C)O1` [COLFORSIN] was 51%; that for `CC(=O)Oc1ccccc1C(=O)Oc1ccccc1C(=O)O` [DIPLOSALSALATE] was 67%.

Staying with this assay, now noted: NINDS set screen; read-out: inhibition LmjIPCS.
With `Clc1ccc(C(OCCN2CCCCC2)c2ccccc2)cc1` (stereo not drawn) [CLOPERASTINE], the inhibition – broadly, the change of the read-out against control, counted positive when it falls – was 13%. On the same count and under the same terms, the value for `COc1cc2cc3c4cc(OC)c(OC)cc4cc[n+]3c(C)c2cc1OC` [CORALYNE] was -5%; that for `CN1CC(=O)NC1=N` [CREATININE] was 15%; that for `CC(C)(O)CC[C@@H](O)[C@](C)(O)[C@H]1CC[C@@]2(O)C3=CC(=O)[C@@H]4C[C@@H](O)[C@@H](O)C[C@]4(C)[C@H]3CC[C@]12C` [CRUSTECDYSONE] was -3.51%. Consider `CN(C)CCOC(=O)C(c1ccccc1)C1(O)CCCC1` (stereo not drawn) [CYCLOPENTOLATE], for which the inhibition is 16%. On the same count and under the same terms, the value for `C=CCSCC=C` [DIALLYL SULFIDE] was 17%; that for `OCCN(CCO)c1nc(N2CCCCC2)c2nc(N(CCO)CCO)nc(N3CCCCC3)c2n1` [DIPYRIDAMOLE] was -11%.

The assay is the same for the next values; noted with them: read-out: 20mM inhibition LmjIPCS.
On to `COC(=O)[C@H](c1ccccc1Cl)N1CCc2sccc2C1` [CLOPIDOGREL], for which the inhibition at 20000 µM came out at 32%.

Consider `COc1cc2c(c(OC)c1OC)-c1ccc(=O)c(O)cc1[C@@H](NC(C)=O)CC2` [COLCHICEINE], for which the inhibition at 20000 µM was 9%. With `C[C@@H]1O[C@@H](O[C@H]2CC[C@]3(C=O)[C@H]4CC[C@]5(C)[C@@H](C6=CC(=O)OC6)CC[C@]5(O)[C@@H]4CC[C@]3(O)C2)[C@H](O)[C@H](O)[C@H]1O` [CONVALLATOXIN], the inhibition at 20000 µM came to 16%. For `COc1cc(/C=C/C(=O)CC(=O)/C=C/c2ccc(O)c(OC)c2)ccc1O` [CURCUMIN], the inhibition at 20000 µM is -10%. Consider `CN(C)CCC=C1c2ccccc2C=Cc2ccccc21` [CYCLOBENZAPRINE], for which the inhibition at 20000 µM was -2.37%. On to `NC1(C(=O)O)CCCC1` [CYCLOLEUCINE], for which the inhibition at 20000 µM was 12%.

`O=P1(N(CCCl)CCCl)NCCCO1` (stereo not drawn) [CYCLOPHOSPHAMIDE]: the inhibition at 20000 µM was -0.87%. `O=c1cccc2n1C[C@@H]1CNC[C@H]2C1` [CYTISINE]: the inhibition at 20000 µM is 9%.

On to `CCN1C[C@]2(C)CC[C@H](OC)[C@@]34C1[C@]1(OCO[C@@]15C[C@H](OC)[C@H]1C[C@]3(O)[C@@H]5[C@H]1OC)[C@@H](OC(C)=O)[C@H]24` [DELTALINE], for which the inhibition at 20000 µM amounted to 22%. For `CN(C)[C@@H]1C(O)=C(C(N)=O)C(=O)[C@@]2(O)C(O)=C3C(=O)c4c(O)ccc(Cl)c4[C@@H](O)[C@H]3C[C@@H]12` [DEMECLOCYCLINE], the inhibition at 20000 µM was -2%. The same measure, in the same setting: the value for `COc1ccc(-c2cc(C(F)F)nn2-c2ccc(S(N)(=O)=O)cc2)cc1F` [DERACOXIB] was 28%; that for `CC(=O)OCC(=O)[C@H]1CC[C@H]2[C@@H]3CCC4=CC(=O)CC[C@]4(C)[C@H]3CC[C@]12C` [DESOXYCORTICOSTERONE ACETATE] was 17%; that for `CC(=O)OCC(=O)[C@@]1(O)[C@H](C)C[C@H]2[C@@H]3CCC4=CC(=O)C=C[C@]4(C)[C@@]3(F)[C@@H](O)C[C@@]21C` [DEXAMETHASONE ACETATE] was -3.4%.

As to `CC1=NS(=O)(=O)c2cc(Cl)ccc2N1` [DIAZOXIDE], the inhibition at 20000 µM was determined as 5%.

For `c1ccc2c(c1)sc1ccccc12` [DIBENZOTHIOPHENE], the inhibition at 20000 µM is 32%. Same read-out and setting: for `Cc1onc(-c2c(Cl)cccc2Cl)c1C(=O)N[C@@H]1C(=O)N2[C@@H]1SC(C)(C)[C@@H]2C(=O)O` [DICLOXACILLIN] the value was 2.55%; for `C/C=C(/C(=C/C)c1ccc(O)cc1)c1ccc(O)cc1` [DIENESTROL], -4%.

Consider `CCN(CC)C(=O)c1cccc(C)c1` [DIETHYLTOLUAMIDE], for which the inhibition at 20000 µM was 17%. Take `O=C(O)c1cc(-c2ccc(F)cc2F)ccc1O` [DIFLUNISAL]: the inhibition at 20000 µM is -4.4%. For `C[C@H]1O[C@@H](O[C@H]2[C@@H](O)C[C@H](O[C@H]3[C@@H](O)C[C@H](O[C@H]4CC[C@@]5(C)[C@H](CC[C@@H]6[C@@H]5CC[C@]5(C)[C@@H](C7=CC(=O)OC7)CC[C@]65O)C4)O[C@@H]3C)O[C@@H]2C)C[C@H](O)[C@@H]1O` [DIGITOXIN], the inhibition at 20000 µM amounted to 5.28%.

Regarding `C[C@H]1O[C@@H](O[C@H]2[C@@H](O)C[C@H](O[C@H]3[C@@H](O)C[C@H](O[C@H]4CC[C@@]5(C)[C@H](CC[C@@H]6[C@@H]5C[C@@H](O)[C@]5(C)[C@@H](C7=CC(=O)OC7)CC[C@]65O)C4)O[C@@H]3C)O[C@@H]2C)C[C@H](O)[C@@H]1O` [DIGOXIN], the inhibition at 20000 µM was determined as 5.32%.

Regarding `CCCCCC1C(=O)CCC1CC(=O)OC` (stereo not drawn) [DIHYDROJASMONIC ACID, METHYL ESTER], the inhibition at 20000 µM was -2%. The same measure, in the same setting: for `CCCCCC1C(=O)CCC1CC(=O)O` (stereo not drawn) [DIHYDROJASMONIC ACID] the value was 20%; for `CN[C@@H]1[C@H](O[C@H]2[C@H](O[C@H]3[C@H](O)[C@@H](O)[C@H](NC(=N)N)[C@@H](O)[C@@H]3NC(=N)N)O[C@@H](C)[C@]2(O)CO)O[C@@H](CO)[C@H](O)[C@H]1O` [DIHYDROSTREPTOMYCIN], 12%.

The same assay, now with this note: read-out: inhibition LmjIPCS.
On to `O=C(O)c1cc(=O)c2c(OCC(O)COc3cccc4oc(C(=O)O)cc(=O)c34)cccc2o1` [CROMOLYN], for which the inhibition came to 0.579%. `N[C@@H]1CON=C1O` [CYCLOSERINE]: the inhibition is -1.4%. Consider `Nc1ccn([C@@H]2O[C@H](CO)[C@@H](O)[C@@H]2O)c(=O)n1` [CYTARABINE], for which the inhibition was -1.69%. In the case of `C#C[C@]1(O)CC[C@H]2[C@@H]3CCC4=Cc5oncc5C[C@]4(C)[C@H]3CC[C@@]21C` [DANAZOL], the inhibition stood at 19%. As to `Nc1ccc(S(=O)(=O)c2ccc(N)cc2)cc1` [DAPSONE], the inhibition was determined as 1.23%.

Regarding `CC(=O)N(O)CCCCCNC(=O)CCC(=O)N(O)CCCCCNC(=O)CCC(=O)N(O)CCCCCN` [DEFEROXAMINe], the inhibition was -4.52%. Same read-out and setting: the value for `C[C@@H]1C[C@H]2[C@@H]3CCC4=CC(=O)C=C[C@]4(C)[C@@]3(F)[C@@H](O)C[C@]2(C)[C@@]1(O)C(=O)CO` [DEXAMETHASONE] was -4%.

For `O=C(O)Cc1ccccc1Nc1c(Cl)cccc1Cl` [DICLOFENAC], the inhibition was -6.5%. Still for that read-out and setting: for `O=c1oc2ccccc2c(O)c1Cc1c(O)c2ccccc2oc1=O` [DICUMAROL] the value was -3%. For the compound `CCN(CC)C(=O)N1CCN(C)CC1` [DIETHYLCARBAMAZINE], the inhibition was -3%. Regarding `COc1ccc([C@@H]2Sc3ccccc3N(CCN(C)C)C(=O)[C@@H]2OC(C)=O)cc1` [DILTIAZEM], the inhibition came to 14%. With `Cc1c(C(N)=O)cc([N+](=O)[O-])cc1[N+](=O)[O-]` [DINITOLMIDE], the inhibition stood at 5%. Same read-out and setting: for `COc1ccc(C(=O)c2ccccc2O)c(O)c1` [DIOXYBENZONE] the value was 11%.

The assay is the same for the next values; noted with them: screening of NINDS set, sheet Screen 1; read-out: inhibition LmjIPCS.
Take `Cc1nc(C)c(Cl)c(O)c1Cl` [CLOPIDOL]: the inhibition is 7%.

Take `NC1=NCCN1CC(=O)O` [CYCLOCREATINE]: the inhibition is 11%. For `NCCSSCCN` [CYSTAMINE], the inhibition was determined as 6.34%.

For the compound `N[C@H](Cc1ccccc1)C(=O)O` [D-PHENYLALANINE], the inhibition stood at 9%.

Consider `CC1(C)OC(=O)NC1=O` [DIMETHADIONE], for which the inhibition was 6.6%.

The same assay, now with this note: single concentration 20mM as printed; screening of NINDS set, sheet Screen 1.
On to `CC(=O)[C@@]1(O)CC[C@H]2[C@@H]3C=C(Cl)C4=CC(=O)[C@@H]5C[C@@H]5[C@]4(C)[C@H]3CC[C@@]21C` [CYPROTERONE], for which the “20mM inhibition LmjIPCS” value is given as 10%.
